{"source": "patent US10238631B2", "about": "“Sesquiterpene derivatives and their use in inflammation or cancer treatment” (Academia Sinica, priority 2014, dated 2019)", "key": {"MDA-MB-231 mammary tumor": {"system": "MDA-MB-231 mammary tumor", "experiment": "Orthotopic MDA-MB-231 mammary tumor growth in NOD/SCID mice", "format": "in vivo, mouse", "method": "Mammary tumor response to DET analog (DETD-35) was studied using MDA-MB-231 cancer cell bearing NOD/SCID mice (6 weeks old). The mammary fat pad regions of mice were injected with 5×10^6 MDA-MB-231 cells in 100 μL (9.1 mg/mL) matrigel (Basement Membrane Matrix. Phenol Red-free) on day 0. Tumors were allowed to grow in the mice for 7 days, and then the animals were randomly assigned to three groups (n=5 per group): sham, tumor (vehicle) control and 10 mg/kg DETD-35 treatment group. DETD-35 was intraperitoneally […] injected every three days. The test mice were sacrificed by cervical dislocation at day 71, and the tumor were collected and measured for the volume (V) using calipers and calculated by the formula V=(L×W^2)/2, where L is the length and W is the width of tumor."}, "[1]": {"system": "MDA-MB-231 lung metastasis", "experiment": "Lung metastasis of MDA-MB-231 cells in SCID mice", "format": "in vivo, mouse", "method": "Female SCID mice (5 weeks old, average body weight 19.59±1.26 g) were assigned to 8 groups: PIX group (5 mg/kg paclitaxel), DETD-35-2 group (2 mg/kg DETD-35), DETD-35-10 group (10 mg/kg DETD-35). PTX-5+DETD-35-2 group (5 mg/kg paclitaxel and 2 mg/kg DETD-35 administration alternatively for eleven doses of paclitaxel (PTX) and ten doses of DETD-35 in total), tumor (vehicle) group (5% DMSO), and sham group (5% DMSO). Pre-DETD-35-10 group was the mice administered 10 mg/kg DETD-35 every two days for three doses before the i.v. injection of 1×10^6 MDA-MB-231 tumor cells at day 0. All other drug or compounds were administered i.p. every three days starting from day 1. At the end of experiment (day 71), the test mice were sacrificed by cervical dislocation. The lung, liver, kidney, and spleen organs were removed and recorded weights and calculated for organ index (% of organ weight/body weight). The number of tumor colonies on lungs of test mice was counted."}, "MDA-MB-231 cells": {"system": "MDA-MB-231 cells", "experiment": "Compound-drug combination assay with PTX", "format": "cell-based, human", "settings": "0-4 μM compound, 0-25 nM PTX", "method": "(§1) Cell proliferation was measured by MTT assay. Isobologram analysis and Chou-Talalay method was used to determine the effects of compound drug combinations. The interaction of DETDs and PLX4032 or PTX was determined by the combination index (CI), and the CI plot was generated using CompuSyn software. The combined effects of two compounds can be categorized as follows: CI=1 indicates additive interaction, CI<1 indicates synergism, and CI>1 indicates antagonism.\nTo investigate whether or not DETD-35 and DETD-39 act synergistically with PTX against MDA-MB-231 cell activity, anti-proliferation assay using MTT reagent was performed to obtain the IC60 value of each compound. […] Based on the IC60 values, DETD-35 or DETD-39 ranging from 0 to 4 μM and PIX from 0 to 25 nM were used for compound-drug combination study. Classic isobologram analysis and Chou-Talalay method were conducted to investigate the synergistic effect of compound and drug. Combination index (CI) was calculated with CalcuSyn software (Version 2.0, Biosoft) and expressed as CI vs. Fa (fraction affected). CI<1 indicates synergy; CI=1 indicates additive effect; and CI>1 indicates antagonism."}, "[2]": {"system": "melanoma cell lines B16-F10, MeWo, A375, A2058, HTB-68", "experiment": "MTT cell viability assay, all melanoma cell lines", "format": "cell-based", "settings": "24 h, read-out: IC50 values over all types of melanoma cell lines", "procedure,_shortened": "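Cells seeded at 2×10^3 to 1×10^4 cells/well overnight, then exposed to compounds for 24 h to 72 h. Growth measured by MTT colorimetric assay; viability expressed as OD570 treated/OD570 vehicle (0.5% DMSO) ×100.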"}, "A375 melanoma cells": {"system": "A375 melanoma cells", "experiment": "Compound-drug combination assay with PLX4032", "format": "cell-based, human", "settings": "DETD-35 0.1 to 1 μM, PLX4032 10 to 100 nM, 72 h", "method": "as §1\nTo investigate whether or not DETD-35 show synergism with PLX4032 against A375 melanoma cells, we performed anti-proliferation assay using MTT reagent to obtain IC50 of each compound. […] The synergistic effect was quantified by combination index (CI) analysis as stated above."}, "[3]": {"system": "A375-R acquired vemurafenib resistance melanoma cells", "experiment": "MTT cell viability assay, PLX4032-resistant A375-R", "format": "cell-based, human", "settings": "Homo sapiens; 72 h, MTT", "method": "A375-R, acquired vemurafenib resistance melanoma cell was generated from A375 parental cell and grown in same conditions as A375 cell.\nNormal or cancer cells (2×10^3 to 1×10^4 cells/well) were seeded in 96-well plate for overnight and treated with different compounds for 24 h to 72 h. Cells growth were determined by MTT-based colorimetric assays according to. Viability of the test cells treated with vehicle (0.5% DMSO) only was defined as 100% viable. Survival of cells after treatment with DETDs was calculated using the following formula: viable cell number (%)=OD570 (treated cell culture)/OD570 (vehicle control)×100.\nTo study the mechanisms underlying how DETD-35 overcomes acquired resistance to BRAF inhibitor, we generated A375 cell line resistant to PLX4032 (designated A375-R). Briefly, A375 melanoma cells were seeded in T75 plate and treated with ascending concentration of PLX4032 (20, 50, 100, 250, 500, 1000, 2000 nM) through approximately 2 months and 20 passages."}, "[4]": {"system": "phospho-MEK and phospho-ERK in A375-R cells", "experiment": "Western blot of MAPK signaling, A375-R", "format": "cell-based, human", "method": "Total cellular proteins were prepared from test cells as previously described. Protein concentration was determined by the Bradford method (Bio-Rad). Protein samples were resolved by 5% to 20% gradient SDS-PAGE and then underwent immunoblotting. Primary antibodies against ERK1/2 and GAPDH were from Santa Cruz Biotechnology (Santa Cruz, Calif., USA) and MEK, phospho-ERK1/2 and phospho-MEK were from Cell Signaling Technology (Danvers, Mass., USA). Appropriate horseradish peroxidase-conjugated secondary antibodies were used. Protein bands reacting to specific antibody were visualized by use of enhanced chemiluminescence (Amersham) with exposure to chemiluminescence light film (BioMax; Kodak Co.)."}}, "note": "Where “and” joins values, the source holds several entries; their conditions need not be identical. Equal values may be shown once.", "data": [{"smiles": "C=C1C(=O)O[C@H]2CC3=C[C@@H](C/C(C)=C/[C@@H](OC(=O)Cc4cccc5ccccc45)[C@H]12)OC3=O", "note": "[DETD-35]", "values": [{"measurement": "effect on mouse body weight", "setting": "MDA-MB-231 mammary tumor; 10 mg/kg i.p.", "result": "without affecting the mouse body weight"}, {"measurement": "fold decrease of tumor volume at day-71 vs tumor control", "setting": "MDA-MB-231 mammary tumor; 10 mg/kg i.p.", "result": 1.8, "unit": "folds"}, {"measurement": "tumor growth vs control group", "setting": "MDA-MB-231 mammary tumor; 10 mg/kg i.p. every three days, day-56", "result": "significantly delayed"}, {"measurement": "tumor volume at day-71", "setting": "MDA-MB-231 mammary tumor; 10 mg/kg i.p. every three days, tumor control 1268", "result": 712, "unit": "mm^3"}, {"measurement": "body weight", "setting": "[1]; 2 mg/kg group", "result": "slightly lower than other groups with no statistical difference"}, {"measurement": "reduction of number of tumor foci in lungs vs tumor control", "setting": "[1]; post-treatment, 2 mg/kg i.p. every three days, not statistically significant", "result": 9, "unit": "%"}, {"measurement": "reduction of number of tumor foci in lungs vs tumor control", "setting": "[1]; post-treatment, 10 mg/kg i.p. every three days", "result": 50, "unit": "%"}, {"measurement": "reduction of number of tumor foci in lungs vs tumor control", "setting": "[1]; pretreatment, 10 mg/kg every two days, three doses before tumor cell injection", "result": 83, "unit": "%"}, {"measurement": "combination effect with PTX (isobologram, combination index)", "setting": "MDA-MB-231 cells", "result": "acted synergistically"}, {"measurement": "IC50", "setting": "[2]", "result": "1600 to 9900 nM and 2500 to 6000 nM"}, {"measurement": "combination effect with PLX4032 (combination index)", "setting": "A375 melanoma cells", "result": "acted synergistically"}, {"measurement": "IC50", "setting": "[3]", "result": 800, "unit": "nM"}, {"measurement": "effect on MAP kinases (phospho-MEK, phospho-ERK), A375-R", "setting": "[4]", "result": "inhibited reactivation of MAP kinases"}]}]}
